Reference: US9029389B2 (Institut Pasteur Korea, priority 2011, dated 2015)

Molecular target: T1, Human 5-lipoxygenase (Homo sapiens, UniProt P09917)
T1 construct: purchased Cayman 60402; host or cells: insect cells
T1 sequence (P09917 1-674): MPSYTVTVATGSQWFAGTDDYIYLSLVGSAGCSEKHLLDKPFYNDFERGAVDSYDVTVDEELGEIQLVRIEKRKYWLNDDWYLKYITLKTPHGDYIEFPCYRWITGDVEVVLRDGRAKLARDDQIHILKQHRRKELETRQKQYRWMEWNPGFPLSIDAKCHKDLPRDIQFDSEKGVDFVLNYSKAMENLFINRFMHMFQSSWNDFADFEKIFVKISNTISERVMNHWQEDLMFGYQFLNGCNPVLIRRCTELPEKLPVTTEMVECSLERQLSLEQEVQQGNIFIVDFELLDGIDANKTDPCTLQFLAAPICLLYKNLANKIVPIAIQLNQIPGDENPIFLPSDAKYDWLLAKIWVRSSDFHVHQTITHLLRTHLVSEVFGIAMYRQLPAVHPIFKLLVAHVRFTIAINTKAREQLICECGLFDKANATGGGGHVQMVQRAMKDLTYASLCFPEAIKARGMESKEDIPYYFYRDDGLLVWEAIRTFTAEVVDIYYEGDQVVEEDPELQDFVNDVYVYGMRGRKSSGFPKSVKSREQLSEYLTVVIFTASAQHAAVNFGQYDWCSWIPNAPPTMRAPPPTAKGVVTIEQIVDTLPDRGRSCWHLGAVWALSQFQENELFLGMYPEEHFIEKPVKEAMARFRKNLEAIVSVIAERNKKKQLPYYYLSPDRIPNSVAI
Assay: Activity of compounds against 5-LO enzyme (LTB4 measurement and/or fluorescence method)
Assay type: biochemical
Conditions: for inhibition at 10 µM: 5-LO, single concentration of 10 uM in duplicate; for IC50: 6 or 11 point dose response in duplicate
Procedure: The activity of compounds against 5-LO were determined by measuring LTB4 (leukotriene B4) levels and/or by a fluorescence method. Both approaches are outlined in more detail below;
Human 5-lipoxygenase (Cayman, Cat#60402) produced in insect cells was pre-incubated with compound for 15 min at RT in incubation buffer (50 mM Tris-Cl, pH 7.4, 2 mM CaCl2, 0.1 mM ATP, 1% DMSO). The enzymatic reaction was started by adding arachidonic acid to a final concentration of 3 uM. After 5 min of incubation at 37° C., the reaction was stopped by heatinactivation at 80° C. for 5 min. LTB4 levels were quantified by using LTB4 EIA kit (Cayman, Cat#520111) as instructed and/or LTB4 levelswere measured with LC/MS/MS using Quattro Premier™ XE tandem quadrupole mass spectrometer equipped with Acquity UPLC system (Waters, Milford, Mass.). The method was slightly modified as reported previously (Zweifel et al., 2008, Willey et al., 2008, Chappell et al, 2011). Briefly, chromatographic separation was carried out with Acquity UPLC BEH Shield RP18 Column (2.1 mm×50 mm, 1.7 μm particle size, Waters, Milford, Mass.). Sample injection volume was 10 μl, the column temperature was 35° C., the mobile phase A consisted of water with 0.1% formic acid and the mobile phase B consisted of acetonitrile with 0.1% formic acid. Flow rate was 0.4 mL/min and the gradient condition was as follows.
Relative quantification of LTB4 and LTB4-d4 (Internal Standard) was done using multi reaction monitoring (MRM) of the transitions of m/z 335→195 for LTB4, 339→197 for LTB4-d4 in electrospray ionization (ESI) negative mode. Desolvation temperature was 400° C., source temperature was 130° C. Capillary voltage, cone voltage, and collision voltage were 3.5 kV, 30V, and 20 eV, respectively. Nitrogen was used for desolvation (750 L/h) and cone (50 L/h) gas. Argon was used for collision gas (0.22 ml/min). The dwell time was 10 ms.
Besides the two methods quantifying LTB4 level, a fluorescence assay measuring 5-HpETE was introduced for high-throughput screening in a 384 well microplate format (Pufahl et al., 2007). For nonspecific ester cleavage of the acetate groups in H2DCFDA, the insect cell lysate expressing human 5-LO (Cayman Cat#60402) was incubated with H2DCFDA (50 mM Tris-Cl, pH 7.5, 2 mM CaCl2, 20 uM H2DCFDA, 500 mU 5-LO per reaction) for 5 minutes. Compound and enzyme mixture were pre-incubated for 5 minutes, and the enzymatic reaction was initiated by addition of ATP and arachidonic acid to a final concentration of 100 uM and 3 uM, respectively. After 5 minutes of incubation, the fluorescence was measured using Spectramax M5 (Molecular Device, Ex/Em=485 nm/530 nm). All steps were carried out at room temperature.
A total of 378 compounds were initially tested at a single concentration of 10 uM in duplicate with the results summarized in Table 1. From these 378 compounds, 53 compounds plus an additional 25 were selected for confirmation of activity by 6 or 11 point dose response in duplicate with the corresponding IC50 values outlined in Table 2.

Row | Structure (SMILES) | inhibition at 10 µM [%] | IC50 [nM]
1 | CCc1nc2ccc(Cl)cn2c1CN1CCC(OCc2ccc(OC(F)(F)F)cc2)CC1 [compound 347, 6-chloro-2-ethyl-3-((4-((4-(trifluoromethoxy)benzyl)oxy)piperidin-1-yl)methyl)imidazo[1,2-a]pyridine] | > 69 | 
2 | CCc1nc2ccc(Cl)cn2c1C(=O)NCc1ccc(N2CCC(O)(C(C)(C)C)CC2)cc1 [compound 322, N-(4-(4-(tert-butyl)-4-hydroxypiperidin-1-yl)benzyl)-6-chloro-2-ethylimidazo[1,2-a]pyridine-3-carboxamide] | < 40 | 
3 | CCc1nc2cc(Cl)ccn2c1C(=O)NCc1ccc(C(C)(C)C)cc1 [compound 92, N-(4-tert-Butylbenzyl)-7-chloro-2-ethylimidazo[1,2-a]pyridine-3-carboxamide] | 40 to 69 | 
4 | CCc1nc2ccc(Cl)cn2c1CNCc1ccc(N(C)C)cc1 [compound 339, 4-((((6-chloro-2-ethylimidazo[1,2-a]pyridin-3-yl)methyl)amino)methyl)-N,N-dimethylaniline] | < 40 | 
5 | Cc1nc2ccccn2c1C(=O)NCc1ccc(-c2ccccc2)cc1 [compound 20, N-(Biphenyl-4-ylmethyl)-2-methylimidazo[1,2-a]pyridine-3-carboxamide] | 40 to 69 | 
6 | CCc1nc2ccccn2c1CN1CCC(Cn2cc(C(O)(CC)C(F)(F)F)nn2)CC1 (stereo not shown) [compound 351, 2-(1-((1-((2-ethylimidazo[1,2-a]pyridin-3-yl)methyl)piperidin-4-yl)methyl)-1H-1,2,3-triazol-4-yl)-1,1,1-trifluorobutan-2-ol] | < 40 | 
7 | CCc1nc2ccc(Cl)cn2c1CNC1CCN(Cc2ccccc2)C1 (stereo not shown) [compound 345, 1-Benzyl-N-((6-chloro-2-ethylimidazo[1,2-a]pyridin-3-yl)methyl)pyrrolidin-3-amine] | < 40 | 
8 | CCc1nc2cc(Cl)ccn2c1C(=O)NCc1ccn(-c2ccc(C(F)(F)F)cc2)n1 [compound 152, 7-Chloro-2-ethyl-N-((1-(4-(trifluoromethyl)phenyl)-1H-pyrazol-3-yl)methyl)imidazo[1,2-a]pyridine-3-carboxamide] | 40 to 69 | 
9 | CCc1nc2ccccn2c1C(=O)NCc1ccc(CC2CCOCC2)cc1 [compound 357, 2-ethyl-N-(4-((tetrahydro-2H-pyran-4-yl)methyl)benzyl)imidazo[1,2-a]pyridine-3-carboxamide] | < 40 | 
10 | CCc1nc2ccc(Cl)cn2c1C(=O)NCc1ccn(-c2ccc(F)cc2)n1 [compound 153, 6-Chloro-2-ethyl-N-((1-(4-fluorophenyl)-1H-pyrazol-3-yl)methyl)imidazo[1,2-a]pyridine-3-carboxamide] | < 40 | 
11 | CCc1nc2ccc(Cl)cn2c1CNc1ccc(Oc2ccc(OC(F)(F)F)cc2)cc1 [compound 394, N-((6-chloro-2-ethylimidazo[1,2-a]pyridin-3-yl)methyl)-4-(4-(trifluoromethoxy)-phenoxy)aniline] |  | < 1000
12 | CCc1nc2cc(OC)ccn2c1C(=O)NCc1ccc(N2CCN(c3ccc(F)cc3)CC2)cc1 [compound 264, 2-Ethyl-N-(4-(4-(4-fluorophenyl)piperazin-1-yl)benzyl)-7-methoxyimidazo[1,2-a]pyridine-3-carboxamide] | < 40 | 
13 | CCc1nc2ccc(C)cn2c1C(=O)NCc1ccc(-c2ccccc2)cc1 [compound 57, N-(Biphenyl-4-ylmethyl)-2-ethyl-6-methylimidazo[1,2-a]pyridine-3-carboxamide] | 40 to 69 | 
14 | CCc1nc2cc(Cl)ccn2c1C(=O)NCc1ccc(Br)cc1 [compound 96, N-(4-Bromobenzyl)-7-chloro-2-ethylimidazo[1,2-a]pyridine-3-carboxamide] | 40 to 69 | 
15 | CCc1nc2cc(Cl)ccn2c1C(=O)NCc1ccc(N2CC3CC=CCC3C2)cc1 (stereo not shown) [compound 202, 7-Chloro-N-(4-(3a,4-dihydro-1H-isoindol-2(3H7H,7aH)-yl)benzyl)-2-ethylimidazo[1,2-a]pyridine-3-carboxamide] | 40 to 69 | 
16 | CCc1nc2cc(Cl)ccn2c1C(=O)N1CCC(OCc2ccc(OC(F)(F)F)cc2)CC1 [compound 393, (7-chloro-2-ethylimidazo[1,2-a]pyridin-3-yl)(4-(4-(trifluoromethoxy)benzyloxy)piperidin-1-yl)methanone] |  | < 1000
17 | Cc1nc2ccccn2c1C(=O)NCC1CCNCC1 [compound 24, 2-Methyl-N-(piperidin-4-ylmethyl)imidazo[1,2-a]pyridine-3-carboxamide] | < 40 | 
18 | CCc1nc2ccc(Cl)cn2c1C(=O)NCc1ccc(N2CCC(c3ccc(OC(F)(F)F)cc3)CC2)cc1 [compound 267, 6-Chloro-2-ethyl-N-(4-(4-(4-(trifluoromethoxy)phenyl)piperidin-1-yl)benzyl)imidazo[1,2-a]pyridine-3-carboxamide] | < 40 | 
19 | Cc1nc2c(O)cccn2c1C(=O)NCc1ccccc1 [compound 48, N-Benzyl-8-hydroxy-2-methylimidazo[1,2-a]pyridine-3-carboxamide] | < 40 | 
20 | CCc1nc2cc(Cl)ccn2c1C(=O)NCc1ccc(N2CCC(COC(C)C)CC2)cc1 [compound 277, 7-Chloro-2-ethyl-N-(4-(4-(isopropoxymethyl)piperidin-1-yl)benzyl)imidazo[1,2-a]pyridine-3-carboxamide] | < 40 | 
21 | CCc1nc2cc(Cl)ccn2c1NC(=O)c1ccc(-c2ccccc2)cc1 [compound 115, N-(7-Chloro-2-ethylimidazo[1,2-a]pyridin-3-yl)biphenyl-4-carboxamide] | 40 to 69 | 
22 | CCc1nc2ccc(Cl)cn2c1C(=O)NCc1ccc(N2CCN(C(=O)Cc3ccc(F)cc3)CC2)cc1 [compound 320, 6-chloro-2-ethyl-N-(4-(4-(2-(4-fluorophenyl)acetyl)piperazin-1-yl)benzyl)imidazo[1,2-a]pyridine-3-carboxamide] | < 40 | 
23 | CCc1nc2ccc(Cl)cn2c1C(=O)NCc1ccc(C(C)(C)C)cc1 [compound 63] | 40 to 69 | 
24 | CCc1nc2ccc(Cl)cn2c1CNCc1ccc(N2CCC(O)CC2)cc1 [compound 340, 1-(4-((((6-chloro-2-ethylimidazo[1,2-a]pyridin-3-yl)methyl)amino)methyl)phenyl)piperidin-4-ol] | < 40 | 
25 | CCOC(=O)c1c(C)nc2cc(-c3ccccc3)ccn12 [compound 18, Ethyl 2-methyl-7-phenylimidazo[1,2-a]pyridine-3-carboxylate] | 40 to 69 | 
26 | CCc1nc2cc(Cl)ccn2c1C(=O)NCc1ccc(-c2ccc(OC(F)(F)F)cc2)cc1 [compound 112, 7-Chloro-2-ethyl-N-((4′-(trifluoromethoxy)biphenyl-4-yl)methyl)imidazo[1,2-a]pyridine-3-carboxamide] | 40 to 69 | 
27 | CCc1nc2ccccn2c1C(=O)NCc1ccc(N2CCC(c3ccc(F)cc3)CC2)cc1 [compound 265, 2-Ethyl-N-(4-(4-(4-fluorophenyl)piperidin-1-yl)benzyl)imidazo[1,2-a]pyridine-3-carboxamide] | > 69 | < 1000
